Measured values published in US20060035810A1, “Regulation of ins(3456)p4 signalling by a reversible kinase phosphatase and methods and compositions related thereto” (priority 2002, published 2006).

Legend:
[1] = target: T1, Ins(1,3,4,5,6)P5 1-phosphatase activity of Ins(3,4,5,6)P4 kinase (Homo sapiens, UniProt Q13572); test: Inositol phosphate phosphatase activity assay with ADP (HPLC); format: biochemical; conditions: 5 mM ADP, trace amounts of substrate
T1 construct: made in house; host or cells: E. coli
T1 sequence (Q13572 1-414): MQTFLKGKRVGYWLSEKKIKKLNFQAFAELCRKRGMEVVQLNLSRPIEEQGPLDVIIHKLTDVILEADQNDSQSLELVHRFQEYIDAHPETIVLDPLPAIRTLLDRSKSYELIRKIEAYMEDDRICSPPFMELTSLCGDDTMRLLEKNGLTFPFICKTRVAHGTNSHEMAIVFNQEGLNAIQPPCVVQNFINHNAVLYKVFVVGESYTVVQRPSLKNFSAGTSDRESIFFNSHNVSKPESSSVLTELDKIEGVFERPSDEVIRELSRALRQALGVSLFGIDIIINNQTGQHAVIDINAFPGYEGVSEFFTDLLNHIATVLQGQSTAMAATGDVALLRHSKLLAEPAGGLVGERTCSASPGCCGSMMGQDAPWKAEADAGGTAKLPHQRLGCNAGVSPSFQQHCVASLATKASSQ
Method: Ins(3,4,5,6)P4 kinase (0.4 μg) was incubated for 30 min in 100 μl phosphatase assay buffer (see Methods) either with (closed circles) or without (open circles) 5 mM ADP plus trace-amounts of either [^3H]Ins(1,3,4,5,6)P5 (panel A) [^3H]Ins(1,3,4,6)P4 (panel B), or [^3H]Ins(1,3,4,5)P4 (panel C). Samples were analyzed by HPLC (see Methods). The elution positions of Ins(1,3,4)P3 and Ins(3,4,5,6)P4 were verified with genuine standards. The elution positions of Ins(1,3,4,6)P4 (106 min, panel B) and of Ins(1,3,4,5)P4 (110 min, panel C) exclude these as products of InsP5 dephosphorylation (panel A).
Additional incubations were performed with 5 μM [^3H]Ins(1,3,4)P3 (approx. 1200 d.p.m.) plus either no Ins(1,3,4,5,6)P5 (open circles) or 5 μM non-radiolabeled Ins(1,3,4,5,6)P5 (closed circles); these reactions were assayed by HPLC (Synchropak Q100 column) and the InsP4 region of the chromatogram is shown in Panel B.
(§1) Inositol phosphate phosphatase activity was assayed in buffer containing 100 mM KCl, 20 mM HEPES pH 7.2, 5 mM ADP, 6 mM MgSO4, 0.3 mg/ml bovine serum albumin. Assays were acid-quenched, neutralized and analyzed by HPLC using a Synchropak Q100 columm (Caffrey et al., “Expanding Coincident Signaling by PTEN through its Inositol 1,3,4,5,6-Pentakisphosphate 3-phosphatase Activity,” FEBS Lett 499: 6-10 (2001)); 1 ml fractions were collected for 70 min., followed by 0.5 ml fractions. Inositol phosphate kinase activity was assayed in buffer containing 100 mM KCl, 20 mM HEPES pH 7.2, 5 mM ATP, 10 mM phosphocreatine, 6 mM MgSO4, 10 μg/ml creatine phosphokinase (Calbiochem), 0.3 mg/ml bovine serum albumin. Some assays were acid-quenched and analyzed by HPLC using a Synchropak Q100 column. Other reactions were heat-inactivated (95° C., 3 min) and analyzed by a metal dye detection, HPLC method (Mayr, “A novel metal-dye detection sysytem permits picomolar-range h.p.l.c. analysis of inositol polyphosphates from non-radioactively labelled cell or tissue specimens,” Biochem J 254: 585-591 (1988); Adelt et al., “Enzyme-assisted total synthesis of the optical antipodes D-myo-inositol 3,4,5-trisphosphate and D-myo-inositol 1,5,6-trisphosphate: aspects of their structure-activity relationship to biologically active inositol phosphates,” J Med Chem 42: 1262-1273 (1999)).

[2] = target: T2, Recombinant human Ins(3,4,5,6)P4 1-kinase (Homo sapiens, UniProt Q13572); test: Inositol phosphate kinase activity assay (HPLC); format: biochemical
T2 construct: made in house; host or cells: E. coli
T2 sequence (Q13572 1-414): T1 sequence (Q13572 1-414)
Method: as §1
Activity of 3.4 ug of inositol 3,4,5,6-tetrakisphosphate 1-kinase was assayed for 4 hr. at 37° C. in 200 μl buffer containing 100 mM KCl, 20 mM HEPES pH 7.2, 5 mM ATP, 10 mM phosphocreatine, 6 mM MgSO4, 10 μg/ml creatine phosphokinase (Calbiochem), 0.3 mg/ml bovine serum albumin and 50 uM of either inositol 3,4,5-trisphosphate, 4,5,6-trisphosphate or inositol 3,5,6-trisphosphate. Reactions were heat-inactivated (95° C., 3 min) and analyzed by a metal dye detection, HPLC method.
[…] (Manassas, Va.) supplied the CFPAC-1 cells and T84 cells. Recombinant human Ins(3,4,5,6)P4 1-kinase was expressed in E. coli and purified (Yang et al., “Multitasking in Signal Transduction by a Promiscuous Human Ins(3,4,5,6)P4 1-Kinase/Ins(1,3,4)P3 5/6-Kinase,” Biochem J 351: 551-555 (2000)). Non-radiolabeled Ins(1,3,4)P3 and Ins(1,3,4,5,6)P5 were purchased from CellSignals Inc (Lexington, Ky.). The details of the synthesis of non-radiolabeled Ins(3,4,5)P3, Ins(3,5,6)P3, Ins(4,5,6)P3 and Ins(3,4,6)P3 (as sodium salts) will be published separately by S.-K. C. Ins(3,4,6)P3 was also prepared by a different synthetic route (Mills et al., “Synthesis of D- and L-myo-inositol 1,4,6-trisphosphate, regioisomers of a ubiquitous second messenger,” J Org Chem 61: 8980-8987 (1996)). [^3H]Ins(1,3,4,5,6)P5 was prepared as previously described (Zhang et al., “The Transcriptional Regulator, Arg82, is a Hybrid Kinase with both Monophosphoinositol- and Diphosphoinositol-Polyphosphate Synthase Activity,” FEBS Lett 494: 208-212 (2001)). [^3H]Ins(1,3,4)P3 was prepared from [^3H]Ins(1,3,4,5)P4 (New England Nuclear) using recombinant Ins(1,4,5)P3/Ins(1,3,4,5)P4 5-phosphatase (Erneux et al., “Production of recombinant human brain type I inositol-1,4,5-trisphosphate 5-phosphatase in Escherichia coli. Lack of phosphorylation by protein kinase C,” Eur J Biochem 234: 598-602 (1995)). [^3H]Ins(1,3,4)P3 was converted to [^3H]Ins(1,3,4,6)P4 using Ins(1,3,4)P3 6-kinase activity (Yang et al., “Multitasking in Signal Transduction by a Promiscuous Human Ins(3,4,5,6)P4 1-Kinase/Ins(1,3,4)P3 5/6-Kinase,” Biochem J 351: 551-555 (2000)). [^3H]Ins(3,4)P2 was prepared by alkaline phosphatase attack on [^3H]Ins(1,3,4)P3 in 20 mM glycine (pH 9.0 with KOH). [^3H]Ins(1,4)P2 was purchased from New England Nuclear.

[3] = system: insulin granules in pancreatic β-cells; test: CCCP-mediated de-acidification of insulin granules, LSG fluorescence; format: cell-based, mouse; conditions: DIDS blockade of Cl− conductance, CCCP
Method: FIG. 7A, Representative confocal images of LSG fluorescence immediately before (zero) and 60 s after perfusion of cells with intracellular buffer supplemented with 100 μM of the protonophore, CCCP, in the absence or presence of 10 μM Ins(3,4,5,6)P4. FIG. 7B, Representative time-courses for changes in LSG-fluorescence ([F/F0] as % of zero time) immediately after establishing a standard whole-cell configuration as in panel A, with intracellular medium (containing 0.4 μM [Ca^2+]free except where “no calcium” is indicated; see Methods) plus 100 μM CCCP, together with either 0 (“control”) or 10 μM Ins(3,4,5,6)P4. FIG. 7C, Mean (±SE) fluorescence changes (n=4-6), during the 60 s that followed establishment of the standard whole-cell configuration, for cells perfused with intracellular medium supplemented with inositol phosphates as indicated at the base of the bar graph ([…]).
The inositol phosphates used in this study were all purchased from CellSignals Inc (Lexington, Ky.). Insulin granule pH were monitored by combining the patch-clamp technique with confocal imaging. Pancreatic β-cells, isolated and cultured on glass coverslips for 2-24 h, were voltage clamped at −70 mV, as previously described (B9). LysoSensor-Green™ DND-189 (1 μM; Molecular Probes, Leiden, The Netherlands) was added during the last 30 min of cell culture and was also included in the extracellular buffer (B9) that continuously perfused the experimental chamber. All LSG experiments were performed at 20° C. to prevent exocytosis that otherwise interfered with the optical measurements (15). LSG fluorescence was excited using the 488 nm-line of a Zeiss 510 confocal microscope. The emitted light was collected with a 63×/1.3 NA oil objective and a >505 nm filter. Laser scanning was performed with low pixel resolution (128×128) and with 6 s intervals to minimize photo-bleaching. After gigaseal formation, it was ascertained that LSG fluorescence was stable for at least 30 s before the experiment commenced. The intracellular electrode solution contained: 125 mM K-glutamate, 10 mM KCl, 1 0 mM NaCl, 1 mM MgCl2, 5 mM HEPES, 3 mM Mg-ATP, 0.1 mM cAMP, 10 mM EGTA and 7 mM CaCl2 (˜0.4 μM free [Ca^2+]I; pH 7.2 with KOH). In some experiments, marked “no calcium”, there was no added Ca^2+, and the concentration of EGTA was 50 μM. Whole-cell capacitance measurements (at 33° C.) were made with the cells clamped at −70 mV, and the standard whole-cell configuration was established at t=0. Capacitance recordings were made using an EPC-7 patch-clamp amplifier equipped with the software Pulse (version 8.4 and later) and the X-chart extension (HEKA Elektronik, Lambrecht/Pfalz, Germany) (B9). […]

[4] = system: insulin granules in pancreatic β-cells; test: Insulin granule acidification, LSG fluorescence with patch-clamp and confocal imaging; format: cell-based, mouse; conditions: DIDS 100 μM in bath solution 30 min prior to patching
Method: FIG. 6. Ins(3,4,5,6)P4 inhibits acidification of insulin granules in pancreatic β-cells. FIG. 6A, Representative time-courses for intragranular acidification, monitored by increased fluorescence of LSG before and after establishment of the standard whole-cell configuration (see arrow) and the effect of perfusion of intracellular medium (containing 0.4 μM [Ca^2+]free except where “no calcium” is indicated; see Methods) plus either 0 (“control”), 1 or 10 μM Ins(3,4,5,6)P4. FIG. 6B, Mean (±SE) fluorescence changes (n-5-11), during the 60 s that followed establishment of the standard whole-cell configuration, for cells perfused with inositol phosphates as indicated at the base of the bar graph. Where indicated, DIDS (100 μM) were added to the bath solution 30 min prior to patching the cells. Statistical significance was evaluated by Student's unpaired t-test (* P<0.01).
The inositol phosphates used in this study were all purchased from CellSignals Inc (Lexington, Ky.). Insulin granule pH were monitored by combining the patch-clamp technique with confocal imaging. Pancreatic β-cells, isolated and cultured on glass coverslips for 2-24 h, were voltage clamped at −70 mV, as previously described (B9). LysoSensor-Green™ DND-189 (1 μM; Molecular Probes, Leiden, The Netherlands) was added during the last 30 min of cell culture and was also included in the extracellular buffer (B9) that continuously perfused the experimental chamber. All LSG experiments were performed at 20° C. to prevent exocytosis that otherwise interfered with the optical measurements (15). LSG fluorescence was excited using the 488 nm-line of a Zeiss 510 confocal microscope. The emitted light was collected with a 63×/1.3 NA oil objective and a >505 nm filter. Laser scanning was performed with low pixel resolution (128×128) and with 6 s intervals to minimize photo-bleaching. After gigaseal formation, it was ascertained that LSG fluorescence was stable for at least 30 s before the experiment commenced. The intracellular electrode solution contained: 125 mM K-glutamate, 10 mM KCl, 1 0 mM NaCl, 1 mM MgCl2, 5 mM HEPES, 3 mM Mg-ATP, 0.1 mM cAMP, 10 mM EGTA and 7 mM CaCl2 (˜0.4 μM free [Ca^2+]I; pH 7.2 with KOH). In some experiments, marked “no calcium”, there was no added Ca^2+, and the concentration of EGTA was 50 μM. Whole-cell capacitance measurements (at 33° C.) were made with the cells clamped at −70 mV, and the standard whole-cell configuration was established at t=0. Capacitance recordings were made using an EPC-7 patch-clamp amplifier equipped with the software Pulse (version 8.4 and later) and the X-chart extension (HEKA Elektronik, Lambrecht/Pfalz, Germany) (B9).

product of ADP-dependent dephosphorylation [1] | whether the enzyme phosphorylates the inositol phosphate [2] | SMILES | effect on loss of H+ from the granules [3] | effect on granule acidification [4]
dephosphorylated to Ins(1,3,4)P3 | does not phosphorylate | O=P(O)(O)O[C@@H]1C(O)[C@H](OP(=O)(O)O)[C@@H](OP(=O)(O)O)C(O)[C@H]1OP(=O)(O)O (stereo partly shown) [Ins(1,3,4,6)P4] |  | 
 |  | O=S(=O)(O)c1cc(N=C=S)ccc1C=Cc1ccc(N=C=S)cc1S(=O)(=O)O [DIDS, 4,4′-diisothiocyanostilbene-2,2′-disulfonic acid] | inhibited | inhibited
